Experimental data taken from patent US20240246935A1 (Plexium, Inc., priority 2021, published 2024).

Tests used:
IKZF2 (Helios) = assay: IKZF2 reporter degradation assay (HEK 293T IKZF2-mNeonGreen reporter cell line); format: cell-based, human; conditions: 24 hour incubation; for IKZF2 % Degradation @ 1 μM: 1 μM compound
In short: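 HEK 293T lines stably expressing each IKZF-GGGGS×3-mNeonGreen-P2A-mScarlet reporter, 4000 cells/well in FluoroBrite medium, treated with compound (≤0.5% DMSO) for 24 h at 37 °C. Imaging measured percent mNeonGreen-positive cells, with mScarlet used for segmentation; DC50 from four-parameter logistic fit.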

GSPT1 = GSPT1 (Homo sapiens (Human), UniProt P15170+Q96SW2); assay: GSPT1 reporter degradation assay (HEK293 hGSPT1 HiBiT-tagged cells); format: cell-based; conditions: 24 hour incubation
Chain of GSPT1 (P15170 whole entry): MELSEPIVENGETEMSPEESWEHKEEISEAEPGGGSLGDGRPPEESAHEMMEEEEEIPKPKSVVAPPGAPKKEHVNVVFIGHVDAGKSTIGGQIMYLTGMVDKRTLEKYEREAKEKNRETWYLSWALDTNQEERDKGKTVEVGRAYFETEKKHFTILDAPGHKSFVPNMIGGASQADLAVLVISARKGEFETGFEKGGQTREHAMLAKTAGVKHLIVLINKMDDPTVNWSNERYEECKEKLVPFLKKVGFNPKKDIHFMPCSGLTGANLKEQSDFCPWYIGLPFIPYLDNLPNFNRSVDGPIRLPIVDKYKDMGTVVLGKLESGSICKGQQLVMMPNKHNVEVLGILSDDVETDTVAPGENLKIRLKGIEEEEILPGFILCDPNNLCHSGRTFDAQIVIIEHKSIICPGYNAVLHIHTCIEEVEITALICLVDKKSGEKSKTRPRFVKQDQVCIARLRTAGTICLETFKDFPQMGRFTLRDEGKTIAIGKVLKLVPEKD
Chain of GSPT1 (Q96SW2 whole entry): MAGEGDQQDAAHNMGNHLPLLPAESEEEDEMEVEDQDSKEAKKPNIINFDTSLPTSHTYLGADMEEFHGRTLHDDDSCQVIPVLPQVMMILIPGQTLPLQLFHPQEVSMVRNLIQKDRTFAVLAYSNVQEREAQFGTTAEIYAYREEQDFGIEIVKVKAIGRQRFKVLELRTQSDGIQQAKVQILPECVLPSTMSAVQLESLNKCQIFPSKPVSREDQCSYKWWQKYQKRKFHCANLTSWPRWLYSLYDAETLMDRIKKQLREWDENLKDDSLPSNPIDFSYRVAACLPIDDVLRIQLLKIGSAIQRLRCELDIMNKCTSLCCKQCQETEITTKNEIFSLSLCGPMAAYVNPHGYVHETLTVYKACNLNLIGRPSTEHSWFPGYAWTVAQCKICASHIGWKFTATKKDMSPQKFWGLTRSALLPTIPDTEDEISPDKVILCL
Chain of GSPT1 (Q16531 whole entry partner): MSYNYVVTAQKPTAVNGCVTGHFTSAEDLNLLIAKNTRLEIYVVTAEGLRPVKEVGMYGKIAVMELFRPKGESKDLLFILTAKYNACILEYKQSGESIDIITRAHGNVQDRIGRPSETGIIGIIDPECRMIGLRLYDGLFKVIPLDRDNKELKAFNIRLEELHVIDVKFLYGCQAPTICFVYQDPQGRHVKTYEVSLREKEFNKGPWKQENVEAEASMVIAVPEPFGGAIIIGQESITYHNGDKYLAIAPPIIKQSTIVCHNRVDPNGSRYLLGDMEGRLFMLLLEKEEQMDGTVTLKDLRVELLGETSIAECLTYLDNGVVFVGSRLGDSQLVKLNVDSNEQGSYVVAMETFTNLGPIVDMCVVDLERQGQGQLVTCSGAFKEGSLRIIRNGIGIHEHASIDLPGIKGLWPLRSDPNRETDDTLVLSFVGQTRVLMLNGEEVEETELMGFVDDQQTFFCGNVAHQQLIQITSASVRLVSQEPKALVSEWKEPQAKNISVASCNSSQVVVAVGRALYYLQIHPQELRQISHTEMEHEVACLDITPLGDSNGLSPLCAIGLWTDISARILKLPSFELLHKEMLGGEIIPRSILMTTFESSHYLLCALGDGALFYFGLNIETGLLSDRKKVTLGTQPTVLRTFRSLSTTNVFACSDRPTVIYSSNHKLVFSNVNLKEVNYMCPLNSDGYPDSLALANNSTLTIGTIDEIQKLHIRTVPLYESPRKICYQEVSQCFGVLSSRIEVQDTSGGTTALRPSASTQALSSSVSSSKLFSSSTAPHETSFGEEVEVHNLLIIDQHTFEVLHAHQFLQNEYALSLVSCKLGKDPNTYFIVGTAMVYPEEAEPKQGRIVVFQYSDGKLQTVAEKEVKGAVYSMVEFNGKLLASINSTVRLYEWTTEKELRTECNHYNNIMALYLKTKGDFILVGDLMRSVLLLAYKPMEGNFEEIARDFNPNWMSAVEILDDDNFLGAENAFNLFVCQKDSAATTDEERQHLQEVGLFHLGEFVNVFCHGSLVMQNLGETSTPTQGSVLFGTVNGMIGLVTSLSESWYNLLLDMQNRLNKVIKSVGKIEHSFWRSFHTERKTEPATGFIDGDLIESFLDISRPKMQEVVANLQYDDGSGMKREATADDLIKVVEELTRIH
Protocol: HEK293_hGSPT1_HiBiT-tagged cells were generated using CRISPR-Cas12a technology. Briefly, ˜400,000 HEK293 cells were transiently co-transfected with precomplexed ribonuclear proteins (RNPs) consisting of 80 pmol of crRNA (IDT), 62 pmol of Cas12a protein (IDT), 3 μg of ssODN donor (IDT; AltR® modifications), 78 pmol of electroporation enhancer (IDT), and 200 ng of pMaxGFP (Lonza). The transfection was performed via nucleofection (Lonza, 4D-Nucleofector X-unit) using solution P3 and program CM-130 in a (20 μL) cuvette. Five days post-nucleofection, cells were single-cell-sorted for GFP+(transfected) cells by FACs in 96-well plates and clonally selected. Clones were screened and verified for the desired modification via targeted deep sequencing using gene-specific primers with partial Illumina adapter overhangs as previously described. In brief, clonal cell pellets were harvested, lysed, and used to generate gene-specific amplicons with partial Illumina adapters in PCR #1. Amplicons were indexed in PCR #2 and pooled with other targeted amplicons for other loci to create sequence diversity. Additionally, 10% PhiX sequencing control V3 (Illumina) was added to the pooled amplicon library prior to running the sample on a Miseq Sequencer System (Illumina) to generate paired 2×250 bp reads. Samples were demultiplexed using the index sequences, fastq files were generated, and NGS analysis was performed using CRIS.py. Final clones were authenticated using the PowerPlex fusion system (Promega) and tested negative for mycoplasma by the MycoAlert™Plus mycoplasma detection kit (Lonza).
Editing construct sequences and screening primers are outlined below (sequence from 5′ to 3′). hGSPT1Cas12acrRNA, CAGE635.GSPT1.g1: […] (SEQ ID NO: 4); CAGE635.g1.anti.ssODN: ttcctcacagtattgtgcagggtcatcaagaaaatgctta[…] CAGCCGCTCACgtcCttctctggaaccagtttcagaacttttccaattgcaatggtcttacctagaaatgaaattttaa (HiBiT tag and silent blocking modifications to prevent Cas12a recutting after integration are in upper case) (SEQ ID NO: 5); CAGE635.hGSPT1.DS.F: […] (SEQ ID NO: 6); CAGE635.hGSPT1.DS.R: GTGAA GTAGGCTTCTGCAGTC (SEQ ID NO: 7).
The GSPT1 degradation assay was carried out by harvesting the HEK 293T reporter cell lines and resuspending the cells in media formulated for reduced background fluorescence (FluoroBrite; Thermo Fisher). The respective cell lines were seeded at a density of 8,000 cells/well into white-opaque 384-well optical grade assay tissue culture plates (Greiner 781080-20). The cells were incubated overnight at 37° C. to allow for attachment to the assay plate. Dilutions of the compounds were prepared in DMSO from 10 mM compound stocks. Test compounds were added in a 10-point dilution series (typically 10 μM to […]) using a TECAN D300e Digital Dispenser with an upper limit of 0.5% final DMSO. Plates were centrifuged at 320×g for 2 minutes at room temperature, and subsequently incubated at 37° C.
After 24 hour incubation with the compounds, the plates were allowed to cool to room temperature for 10 minutes. 30 μL of HiBiT lytic buffer+1:50 HiBiT substrate Solution were added to each well. Plates were centrifuged at 320×g for 2 minutes at room temperature and then incubated with shaking at room temperature for 10 minutes covered with foil. Plates were read on a CLARIOstar microplate reader (BMG LabTech), measuring at 450 nm (donor emission) and 610 nm or 630 nm (acceptor emission). The DC50 values were determined by regression to best fit four-parameter logistic curves using GraphPad Prism.

IKZF1 (Ikaros) = assay: IKZF1 reporter degradation assay (HEK 293T IKZF1-mNeonGreen reporter cell line); format: cell-based, human; conditions: HEK 293T IKZF1 reporter cells, 24 hour incubation
Excerpt: (§1) Polycistronic plasmids were constructed for the mammalian expression of fluorescent reporter fusions of human transcription factors IKZF1 (Ikaros), IKZF2 (Helios), and IKZF3 (Aiolos). The respective protein sequences had their C-terminal end joined to a GGGGS linker repeated three times followed by mNeonGreen, P2A sequence, and mScarlet. The DNA sequences of the open reading frames are as follows:
(§2) IKZF1, IKZF2, and IKZF3 constructs were cloned into the UCOE Hygromycin expression vectors (Millipore Sigma). Reporter constructs were transfected using cationic lipid reagents into adherent HEK 293T cells and stable integrants were selected by treatment with 200 μg/mL hygromycin B. Clonal populations were obtained from the population of stable integrants either by limiting dilution or fluorescence activated cell sorting.
(§3) The clonal stable cell lines were maintained under constant 200 μg/mL hygromycin B selection while being passaged for use in the degradation assays. […] The fluorescence intensity of the IKZF1/2/3-mNeonGreen (FITC channel) and mScarlet (PE channel) reporters were routinely analyzed by flow cytometry to confirm consistent expression levels between experiments.
(§4) The IKZF1/IKZF2/IKZF3 degradation assays were carried out by harvesting the HEK 293T reporter cell lines and resuspending the cells in media formulated for reduced background fluorescence (FluoroBrite; Thermo Fisher). The respective cell lines were seeded at a density of 4000 cells/well into black-walled 384-well optical grade assay tissue culture plates. The cells were incubated overnight at 37° C. to allow for attachment to the assay plate. Dilutions of the compounds were prepared in DMSO from 10 mM compound stocks. The assay plates were treated with appropriate concentrations of the compounds by dispensing the DMSO dilutions in quadruplicate wells with an upper limit of 0.5% final DMSO.
(§5) After 24 hour incubation with the compounds, the assay plates were imaged on an ImageXpress Pico microscopy system (cells maintained at 37° C. during imaging) to obtain the fluorescent readouts. The assay plates were imaged in the FITC and Tetramethylrhodamine (TRITC) channels to obtain the mNeonGreen fluorescence intensity (reporter degradation data) and mScarlet fluorescence intensity (for cell segmentation). 293T-IKZF1 and 293T-IKZF3 reporter cell lines were imaged with exposures of 500 milliseconds (ms) for both FITC and TRITC channels, while the 293T-IKZF2 reporter cell line was imaged with exposures of 1000 ms for FITC and 1250 ms for TRITC. The resulting data was analyzed with Cell Reporter Xpress software using the 2-channel cell scoring analysis with a “percent positive” readout. The TRITC channel was selected for the “nuclei” segmentation with a threshold of 20 while the FITC channel was selected for the “Marker 1” segmentation and a threshold of 100 for the IKZF1 and IKZF3 reporter lines. […] The minimum segmentation width was set to 6 micrometers and the maximum segmentation width was set to 15 micrometers for all cell lines. The DCs calculations were determined by regression to best fit four-parameter logistic curves using GraphPad Prism.

IKZF3 (Aiolos) = assay: IKZF3 reporter degradation assay (HEK 293T IKZF3-mNeonGreen reporter cell line); format: cell-based, human; conditions: HEK 293T IKZF3 reporter cells, 24 hour incubation
Excerpt: as §1, §2, §3, §4, §5

[1] = target: human E3 ligase component cereblon (CRBN) (Homo sapiens (Human), UniProt Q96SW2); assay: Cereblon (CRBN) target engagement, NanoBRET TE Intracellular E3 Ligase Assay in transfected HEK-293T cells; conditions: read-out: CRBN Binding EC50
Chain of human E3 ligase component cereblon (CRBN) (Q96SW2 whole entry): as the sequence (Q96SW2 whole entry) above
Chain of human E3 ligase component cereblon (CRBN) (Q16531 whole entry partner): as the sequence (Q16531 whole entry partner) above
In short: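 Live HEK-293T cells co-transfected overnight with NanoLuc-CRBN (CRBN at NanoLuc C-terminus) and DDB1 vectors (10:990 ng) were given CRBN tracer and an 11-point compound series for 2 h at 37° C. BRET read at 450/610 nm with extracellular NanoLuc inhibitor present; IC50 from four-parameter logistic fit.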

[2] = HEK 293T IKZF2-mNeonGreen reporter

Compound | DC50 (GSPT1) | DC50 (IKZF1 (Ikaros)) | DC50 (IKZF2 (Helios); HEK 293T IKZF2 reporter cells) | DC50 (IKZF3 (Aiolos)) | EC50 [1] | IKZF2 % Degradation @ 1 μM (IKZF2 (Helios); [2]) | IKZF2 % Degradation @ 1 μM (IKZF2 (Helios); HEK 293T IKZF2 reporter cells)
O=C1CCC(N2Cc3cc(O[C@H]4CCCC[C@@H]4N4CC(c5ccccc5)C4)ccc3C2=O)C(=O)N1 (stereo partly drawn) [Compound 127, 3-(1-oxo-5-(((1S,2S)-2-(3-phenylazetidin-1-yl)cyclohexyl)oxy)isoindolin-2-yl)piperidine-2,6-dione] | > 30 µM | – | – | – | – | 77.9% | –
O=C1CC[C@H](N2Cc3cc(O[C@@H]4CCCC[C@H]4N4CC(c5ccccc5)C4)ccc3C2=O)C(=O)N1 [Compound 14, (S)-3-(1-oxo-5-(((1R,2R)-2-(3-phenylazetidin-1-yl)cyclohexyl)oxy)isoindolin-2-yl)piperidine-2,6-dione] | – | > 30 µM | 0.292 µM | > 30 µM | – | – | 33.5%
O=C1CCC(N2Cc3cc(O[C@H]4CCCC[C@@H]4N4CC(c5ccccc5Cl)C4)ccc3C2=O)C(=O)N1 (stereo partly drawn) [Compound 15, 3-(5-(((1S,2S)-2-(3-(2-chlorophenyl)azetidin-1-yl)cyclohexyl)oxy)-1-oxoisoindolin-2-yl)piperidine-2,6-dione] | – | > 30 µM | 0.004 µM | > 30 µM | – | – | 78.9%
COc1ccccc1C1CN([C@H]2CCCC[C@@H]2Oc2ccc3c(c2)CN(C2CCC(=O)NC2=O)C3=O)C1 (stereo partly drawn) [Compound 19, 3-(5-(((1S,2S)-2-(3-(2-methoxyphenyl)azetidin-1-yl)cyclohexyl)oxy)-1-oxoisoindolin-2-yl)piperidine-2,6-dione] | – | > 30 µM | 0.004 µM | > 30 µM | – | – | 84.5%
O=C1CCC(N2Cc3cc(O[C@H]4CCCC[C@@H]4N4CCC(c5ccccc5)C4)ccc3C2=O)C(=O)N1 (stereo partly drawn) [Compound 1, 3-(1-oxo-5-(((1S,2S)-2-(3-phenylpyrrolidin-1-yl)cyclohexyl)oxy)isoindolin-2-yl)piperidine-2,6-dione] | > 30 µM | > 30 µM | 0.024 µM | > 30 µM | – | – | 79.9%
O=C1CCC(N2Cc3cc(O[C@H]4CCCC[C@@H]4N4CC(c5ccccc5F)C4)ccc3C2=O)C(=O)N1 (stereo in doubt) [Compound 27] | – | > 30 µM | 0.005 µM | > 30 µM | – | – | 82.1%
N#Cc1ccc(C2CN(C3CCCC3Oc3ccc4c(c3)CN(C3CCC(=O)NC3=O)C4=O)C2)cc1 (stereo not shown) [Compound 98, 4-(1-(2-((2-(2,6-dioxopiperidin-3-yl)-1-oxoisoindolin-5-yl)oxy)cyclopentyl)azetidin-3-yl)benzonitrile] | – | – | – | – | 0.032 µM | <15% | –
Rac-3-(5-(((trans)-2-(3-hydroxy-3-phenylazetidin-1-yl)cyclohexyl)oxy)-1-oxoisoindolin-2-yl)piperidine-2,6-dione [Compound 96] | – | – | – | – | 0.042 µM | 78.9% | –
O=C1CCC(N2Cc3cc(O[C@H]4CCC[C@@H]4N4CCC(c5ccccc5)CC4)ccc3C2=O)C(=O)N1 (stereo partly drawn) [Compound 72, 3-(1-oxo-5-(((1S,2S)-2-(4-phenylpiperidin-1-yl)cyclopentyl)oxy)isoindolin-2-yl)piperidine-2,6-dione] | – | – | – | – | 0.007 µM | 38.2% | –

Second part, led by results:

DC50 (GSPT1) | DC50 (IKZF1 (Ikaros)) | DC50 (IKZF2 (Helios); HEK 293T IKZF2 reporter cells) | DC50 (IKZF3 (Aiolos)) | EC50 [1] | Compound | IKZF2 % Degradation @ 1 μM (IKZF2 (Helios); [2]) | IKZF2 % Degradation @ 1 μM (IKZF2 (Helios); HEK 293T IKZF2 reporter cells)
– | > 30 µM | 0.0005 µM | > 30 µM | – | O=C1CCC(N2Cc3cc(O[C@H]4CCCC[C@@H]4N4CC(c5ccc(-n6cccn6)cc5)C4)ccc3C2=O)C(=O)N1 (stereo partly drawn) [Compound 31, 3-(5-(((1S,2S)-2-(3-(4-(1H-pyrazol-1-yl)phenyl)azetidin-1-yl)cyclohexyl)oxy)-1-oxoisoindolin-2-yl)piperidine-2,6-dione] | – | 83.3%
– | > 30 µM | > 30 µM | > 30 µM | – | O=C1CCC(N2Cc3cc(O[C@@H]4CCCC[C@@H]4N4CC(c5ccccc5)C4)ccc3C2=O)C(=O)N1 (stereo partly drawn) [Compound 13, 3-(1-oxo-5-(((1R,2S)-2-(3-phenylazetidin-1-yl)cyclohexyl)oxy)isoindolin-2-yl)piperidine-2,6-dione] | – | –
> 30 µM | > 30 µM | 0.006 µM | > 30 µM | – | O=C1CC[C@H](N2Cc3cc(O[C@H]4CCCC[C@@H]4N4CC(c5ccccc5)C4)ccc3C2=O)C(=O)N1 [Compound 10, (S)-3-(1-oxo-5-(((1S,2S)-2-(3-phenylazetidin-1-yl)cyclohexyl)oxy)isoindolin-2-yl)piperidine-2,6-dione] | – | 78.7%
– | > 30 µM | > 30 µM | > 30 µM | – | O=C1CCC(N2Cc3cc(O[C@@H]4CCCC[C@H]4N4CC(c5ccccc5)C4)ccc3C2=O)C(=O)N1 (stereo partly drawn) [Compound 11, 3-(1-oxo-5-(((1R,2R)-2-(3-phenylazetidin-1-yl)cyclohexyl)oxy)isoindolin-2-yl)piperidine-2,6-dione] | – | –
– | – | – | – | 0.018 µM | O=C1CCC(N2Cc3cc(O[C@H]4CCCC[C@@H]4N4CC(c5ccc(F)cc5)C4)ccc3C2=O)C(=O)N1 (single isomer, unassigned) [Compound 51] | 74.2% | –
